# Measurements reported in patent publication US20240059691A1 (KALVISTA PHARMACEUTICALS LIMITED, priority 2020, published 2024).
# Target: Human Factor XIIa (Homo sapiens (Human), UniProt P00748)
# Experiment: Determination of FXIIa inhibition (fluorogenic substrate H-DPro-Phe-Arg-AFC, IC50 assay)
# Type: biochemical
# Settings: substrate H-DPro-Phe-Arg-AFC at Km, 25° C.; class scale A-G
# Protocol: Determination of FXIIa Inhibition
# In vitro inhibition of Factor XIIa was determined using an IC50 assay based on standard literature methods (see e.g Baeriswyl et al., ACS Chem. Biol., 2015, 10 (8) 1861; Bouckaert et al., European Journal of Medicinal Chemistry 110 (2016) 181). Human Factor XIIa (Enzyme Research Laboratories) was incubated at 25° C. with the fluorogenic substrate H-DPro-Phe-Arg-AFC (Peptide Protein Science) and various concentrations of the test compound. Protease activity was measured by monitoring the accumulation of liberated fluorescence from the substrate over 5 min at 25° C. The linear rate of fluorescence increase per minute was expressed as percentage (%) activity. The Km for the cleavage of the substrate by FXIIa was determined by standard transformation of the Michaelis-Menten equation. The compound inhibitor assays were performed at substrate Km concentration. IC50 values were calculated as the concentration of inhibitor giving 50% inhibition (IC50) of the uninhibited enzyme activity (100%).
# Sequence of Human Factor XIIa (P00748 373-615): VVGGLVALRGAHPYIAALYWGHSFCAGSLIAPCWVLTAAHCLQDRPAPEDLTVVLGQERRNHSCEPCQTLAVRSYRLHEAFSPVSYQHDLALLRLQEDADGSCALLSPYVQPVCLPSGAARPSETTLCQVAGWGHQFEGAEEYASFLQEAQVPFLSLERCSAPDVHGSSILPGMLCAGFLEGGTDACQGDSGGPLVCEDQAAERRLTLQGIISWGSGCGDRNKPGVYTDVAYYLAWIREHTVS
row,SMILES,IC50 [nM]
1,"Cn1ccnc1CCCNc1ncc(CNc2ccc3c(N)ncc(Cl)c3c2)cn1 [Example 1038, 4-chloro-6-N-[(2-{[3-(1-methylimidazol-2-yl)propyl]amino}pyrimidin-5-yl)methyl]isoquinoline-1,6-diamine]",3000 to 10000
2,"CN1C[C@@H]2C(COc3ccc(CNc4ccc5c(N)nccc5c4)cn3)[C@@H]2C1 (stereo partly drawn) [Example 1175, 6-N-[(6-{[(1R,5S,6S)-3-methyl-3-azabicyclo[3.1.0]hexan-6-yl]methoxy}pyridin-3-yl)methyl]isoquinoline-1,6-diamine]",300 to 1000
3,"Nc1nccc2c(NCc3ccc(N4CCn5c(nnc5C(F)(F)F)C4)nc3)nccc12 [Example 1318, N1-((6-(3-(trifluoromethyl)-5,6-dihydro-[1,2,4]triazolo[4,3-a]pyrazin-7(8H)-yl)pyridin-3-yl)methyl)-2,6-naphthyridine-1,5-diamine]",10000 to 40000
4,"Cc1cc(N2CCn3c(nnc3C(F)(F)F)C2)ncc1CNc1ccc2nccn2c1 [Example 1322, N-((4-methyl-6-(3-(trifluoromethyl)-5,6-dihydro-[1,2,4]triazolo[4,3-a]pyrazin-7(8H)-yl)pyridin-3-yl)methyl)imidazo[1,2-a]pyridin-6-amine]",10000 to 40000
5,"Cc1cc(N2CCn3c(nnc3C(F)(F)F)C2)ncc1CNc1ccnc(N)c1 [Example 1323, N4-((4-methyl-6-(3-(trifluoromethyl)-5,6-dihydro-[1,2,4]triazolo[4,3-a]pyrazin-7(8H)-yl)pyridin-3-yl)methyl)pyridine-2,4-diamine]",10000 to 40000
6,"CN(Cc1ccc(N2CCn3c(nnc3C(F)(F)F)C2)nc1)c1cccc2c(N)nccc12 [Example 1332, N5-methyl-N5-((6-(3-(trifluoromethyl)-5,6-dihydro-[1,2,4]triazolo[4,3-a]pyrazin-7(8H)-yl)pyridin-3-yl)methyl)isoquinoline-1,5-diamine]",3000 to 10000
7,"Cc1cc(N2CCn3c(nnc3C(F)(F)F)C2)ncc1CNc1ccc2c(N)ncc(Cl)c2c1 [Example 1334, 4-chloro-N6-((4-methyl-6-(3-(trifluoromethyl)-5,6-dihydro-[1,2,4]triazolo[4,3-a]pyrazin-7(8H)-yl)pyridin-3-yl)methyl)isoquinoline-1,6-diamine]",300 to 1000
8,"Nc1nccc2c(NCc3cnc(N4CCn5c(nnc5C(F)(F)F)C4)c(CO)c3)cccc12 [Example 1335, (5-(((1-aminoisoquinolin-5-yl)amino)methyl)-2-(3-(trifluoromethyl)-5,6-dihydro-[1,2,4]triazolo[4,3-a]pyrazin-7(8H)-yl)pyridin-3-yl)methanol]",10000 to 40000
9,"Nc1nccc2c(NS(=O)(=O)c3ccc(N4CCn5c(nnc5C(F)(F)F)C4)nc3)cccc12 [Example 1337, N-(1-aminoisoquinolin-5-yl)-6-(3-(trifluoromethyl)-5,6-dihydro-[1,2,4]triazolo[4,3-a]pyrazin-7(8H)-yl)pyridine-3-sulfonamide]",300 to 1000
10,"Cc1cc(N2CCn3c(nnc3C(F)(F)F)C2)ncc1CNc1ccnc2c1CCN2 [Example 1339, N-((4-methyl-6-(3-(trifluoromethyl)-5,6-dihydro-[1,2,4]triazolo[4,3-a]pyrazin-7(8H)-yl)pyridin-3-yl)methyl)-2,3-dihydro-1H-pyrrolo[2,3-b]pyridin-4-amine]",10000 to 40000
11,"Cc1cc2c(NCc3cnc(N4CCn5c(nnc5C(F)(F)F)C4)cc3C)cncc2[nH]1 [Example 1341, 2-methyl-N-((4-methyl-6-(3-(trifluoromethyl)-5,6-dihydro-[1,2,4]triazolo[4,3-a]pyrazin-7(8H)-yl)pyridin-3-yl)methyl)-1H-pyrrolo[2,3-c]pyridin-4-amine]",1000 to 3000
12,"Cc1cc(N2Cc3nnc(C(F)(F)F)n3C[C@H]2C)ncc1CNc1cccc2c(N)nccc12 [Example 1342, (R)-N5-((4-methyl-6-(6-methyl-3-(trifluoromethyl)-5,6-dihydro-[1,2,4]triazolo[4,3-a]pyrazin-7(8H)-yl)pyridin-3-yl)methyl)isoquinoline-1,5-diamine]",10 to 100
13,"CN1CCN(C(=O)Cc2ccc(CNc3ccc4c(N)nccc4c3)cc2)CC1 [Example 2179, 2-(4-{[(1-aminoisoquinolin-6-yl)amino]methyl}phenyl)-1-(4-methylpiperazin-1-yl)ethanone]",1000 to 3000

# Second part, the compound after the results:
row,IC50 [nM],SMILES
1,10000 to 40000,"CN1CCC(COc2ccc(CNc3ccc4cncc(CO)c4c3)cn2)CC1 [Example 1026, (6-(((6-((1-Methylpiperidin-4-yl)methoxy)pyridin-3-yl)methyl)amino)isoquinolin-4-yl)methanol]"
2,100 to 300,"COc1nc(OCC2CCN(C)CC2)ccc1CNc1ccc2c(N)nccc2c1 [Example 1027, N6-((2-methoxy-6-((1-methylpiperidin-4-yl)methoxy)pyridin-3-yl)methyl)isoquinoline-1,6-diamine]"
3,1000 to 3000,"Nc1nccc2cc(NCc3ccc(OCC4CCn5cc(C(F)(F)F)nc5C4)nc3)ccc12 (centres unmarked) [Example 1028, N6-((6-((2-(trifluoromethyl)-5,6,7,8-tetrahydroimidazo[1,2-a]pyridin-7-yl)methoxy)pyridin-3-yl)methyl)isoquinoline-1,6-diamine]"
4,1000 to 3000,"Nc1nccc2cc(NCc3ccc(OCCCn4ccnc4)nc3)ccc12 [Example 1031, 6-N-({6-[3-(imidazol-1-yl)propoxy]pyridin-3-yl}methyl)isoquinoline-1,6-diamine]"
5,300 to 1000,"CN1CCC(CCOc2ccc(CNc3ccc4c(N)nccc4c3)cn2)CC1 [Example 1032, 6-N-({6-[2-(1-methylpiperidin-4-yl)ethoxy]pyridin-3-yl}methyl)isoquinoline-1,6-diamine]"
6,300 to 1000,"Nc1ncc(Cl)c2cc(NCc3ccc(OCC4CCn5ccnc5C4)nc3)ccc12 (centres unmarked) [Example 1041, 4-Chloro-N6-[[6-(5,6,7,8-tetrahydroimidazo[1,2-a]pyridin-7-ylmethoxy)-3-pyridyl]methyl]isoquinoline-1,6-diamine]"
7,10000 to 40000,"CN1CCC(CNc2ccc(CNc3cc(C(F)(F)F)cc4[nH]ccc34)cn2)CC1 [Example 1237, N-((6-(((1-methylpiperidin-4-yl)methyl)amino)pyridin-3-yl)methyl)-6-(trifluoromethyl)-1H-indol-4-amine]"
8,10000 to 40000,"CCc1cc2c(NCc3ccc(NCC4CCN(C)CC4)nc3)ccnc2[nH]1 [Example 1239, 2-ethyl-N-((6-(((1-methylpiperidin-4-yl)methyl)amino)pyridin-3-yl)methyl)-1H-pyrrolo[2,3-b]pyridin-4-amine]"
9,10000 to 40000,"CN1CCC(CNc2ccc(CNc3cc(Cl)cc4[nH]ccc34)cn2)CC1 [Example 1241, 6-chloro-N-((6-(((1-methylpiperidin-4-yl)methyl)amino)pyridin-3-yl)methyl)-1H-indol-4-amine]"
10,10 to 100,"COCC1c2nnc(C(F)(F)F)n2CCN1c1cc(C)c(CNc2cccc3c(N)nccc23)cn1 (centres unmarked) [Example 1319, N5-((6-(8-(methoxymethyl)-3-(trifluoromethyl)-5,6-dihydro-[1,2,4]triazolo[4,3-a]pyrazin-7(8H)-yl)-4-methylpyridin-3-yl)methyl)isoquinoline-1,5-diamine]"
11,100 to 300,"CCC1c2nnc(C(F)(F)F)n2CCN1c1cc(C)c(CNc2cccc3c(N)nccc23)cn1 (centres unmarked) [Example 1331, N5-((6-(8-ethyl-3-(trifluoromethyl)-5,6-dihydro-[1,2,4]triazolo[4,3-a]pyrazin-7(8H)-yl)-4-methylpyridin-3-yl)methyl)isoquinoline-1,5-diamine]"
12,100 to 300,"Cc1cc(N2CCn3c(nnc3C(F)(F)F)C2)ncc1CNc1ccc2c(N)nccc2c1 [Example 1333, N6-((4-methyl-6-(3-(trifluoromethyl)-5,6-dihydro-[1,2,4]triazolo[4,3-a]pyrazin-7(8H)-yl)pyridin-3-yl)methyl)isoquinoline-1,6-diamine]"
13,300 to 1000,"CCc1nc(N2CCn3c(nnc3C(F)(F)F)C2)ccc1CNc1cccc2c(N)nccc12 [Example 1336, N5-((2-ethyl-6-(3-(trifluoromethyl)-5,6-dihydro-[1,2,4]triazolo[4,3-a]pyrazin-7(8H)-yl)pyridin-3-yl)methyl)isoquinoline-1,5-diamine]"
14,300 to 1000,"CN1CCN(CCc2ccc(CNc3ccc4c(N)nccc4c3)cc2)CC1 [Example 2180, 6-N-({4-[2-(4-methylpiperazin-1-yl)ethyl]phenyl}methyl)isoquinoline-1,6-diamine]"
15,300 to 1000,"CC(=O)N1CCC(OCc2ccc(CNc3ccc4c(N)nccc4c3)c(F)c2)CC1 [Example 2200, 1-(4-((4-(((1-aminoisoquinolin-6-yl)amino)methyl)-3-fluorobenzyl)oxy)piperidin-1-yl)ethan-1-one]"
16,1000 to 3000,"CN1CCC(OCc2ccc(CN(C)c3cccc4c(N)nccc34)c(Cl)c2)CC1 [Example 2203, 5-N-[(2-chloro-4-{[(1-methylpiperidin-4-yl)oxy]methyl}phenyl)methyl]-5-N-methylisoquinoline-1,5-diamine]"
17,300 to 1000,"CN1CCC(OCc2ccc(CN(C)c3ccc4cnccc4c3)cc2)CC1 [Example 2204, N-methyl-N-[(4-{[(1-methylpiperidin-4-yl)oxy]methyl}phenyl)methyl]isoquinolin-6-amine]"
18,1000 to 3000,"CN1CCC(OCc2ccc(CNc3ccc4c(N)nccc4c3)c(F)c2)CC12COC2 (centres unmarked) [Example 2205, 6-N-({2-fluoro-4-[({5-methyl-2-oxa-5-azaspiro[3.5]nonan-8-yl}oxy)methyl]phenyl}methyl)isoquinoline-1,6-diamine]"
19,300 to 1000,"CN1CCC(OCc2ccc(S(=O)(=O)Nc3ccc4c(N)nccc4c3)cc2)CC1 [Example 2210, N-(1-aminoisoquinolin-6-yl)-4-(((1-methylpiperidin-4-yl)oxy)methyl)benzenesulfonamide]"
